Assay results as given in ChEMBL document CHEMBL3792365, “Dioxol and dihydrodioxin analogs of 2- and 3-phenylacetonitriles as potent anti-cancer agents with nanomolar activity against a variety of human cancer cells” (2016).

Key:
Format in all cases: functional
[1] = Growth inhibition of human OVCAR3 cells at 10 uM after 48 hrs by sulforhodamine B assay; conditions: OVCAR-3, 48 h, values are per cent of control
[2] = Growth inhibition of human PC3 cells at 10 uM after 48 hrs by sulforhodamine B assay; conditions: PC-3, 48 h, values are per cent of control
A549 = assay: Growth inhibition of human A549/ATCC cells at 10 uM after 48 hrs by sulforhodamine B assay; conditions: A549, 48 h, values are per cent of control
[3] = Growth inhibition of human OVCAR8 cells at 10 uM after 48 hrs by sulforhodamine B assay; conditions: OVCAR-8, 48 h, values are per cent of control
[4] = Growth inhibition of human BT549 cells at 10 uM after 48 hrs by sulforhodamine B assay; conditions: BT-549, 48 h, values are per cent of control
HT-29 = assay: Growth inhibition of human HT-29 cells at 10 uM after 48 hrs by sulforhodamine B assay; conditions: HT-29, 48 h, values are per cent of control
[5] = Growth inhibition of human LOXIMVI cells at 10 uM after 48 hrs by sulforhodamine B assay; conditions: LOX IMVI, values are per cent of control
MDA-MB-231 = assay: Growth inhibition of human MDA-MB-231 cells at 10 uM after 48 hrs by sulforhodamine B assay; conditions: MDA-MB-231, 48 h, values are per cent of control
[6] = Growth inhibition of human UACC257 cells at 10 uM after 48 hrs by sulforhodamine B assay; conditions: UACC-257, 48 h, values are per cent of control
[7] = Growth inhibition of human HL-60(TB) cells at 10 uM after 48 hrs by sulforhodamine B assay; conditions: HL-60, 48 h, values are per cent of control
KM12 = assay: Growth inhibition of human KM12 cells at 10 uM after 48 hrs by sulforhodamine B assay; conditions: KM12, 48 h, values are per cent of control
Malme-3M = assay: Growth inhibition of human MALME-3M cells at 10 uM after 48 hrs by sulforhodamine B assay; conditions: values are per cent of control
[8] = Growth inhibition of human MOLT4 cells at 10 uM after 48 hrs by sulforhodamine B assay; conditions: MOLT-4, 48 h, values are per cent of control
[9] = Growth inhibition of human RPMI8226 cells at 10 uM after 48 hrs by sulforhodamine B assay; conditions: RPMI-8226, 48 h, values are per cent of control
CCRF-CEM = assay: Growth inhibition of human CCRF-CEM cells at 10 uM after 48 hrs by sulforhodamine B assay; conditions: values are per cent of control
MCF7 = assay: Growth inhibition of human MCF7 cells at 10 uM after 48 hrs by sulforhodamine B assay; conditions: MCF7, 48 h, values are per cent of control
SK-MEL-5 = assay: Growth inhibition of human SK-MEL-5 cells at 10 uM after 48 hrs by sulforhodamine B assay; conditions: SK-MEL-5, 48 h, values are per cent of control
[10] = Growth inhibition of human UO31 cells at 10 uM after 48 hrs by sulforhodamine B assay; conditions: UO-31, 48 h, values are per cent of control
[11] = Growth inhibition of human HOP92 cells at 10 uM after 48 hrs by sulforhodamine B assay; conditions: HOP-92, 48 h, values are per cent of control

SMILES | growth, % of control at 10 µM [1] [%] | growth, % of control at 10 µM [2] [%] | growth, % of control at 10 µM (A549) [%] | growth, % of control at 10 µM [3] [%] | growth, % of control at 10 µM [4] [%] | growth, % of control at 10 µM (HT-29) [%] | growth, % of control at 10 µM [5] [%] | growth, % of control at 10 µM (MDA-MB-231) [%] | growth, % of control at 10 µM [6] [%] | growth, % of control at 10 µM [7] [%] | growth, % of control at 10 µM (KM12) [%] | growth, % of control at 10 µM (Malme-3M) [%] | growth, % of control at 10 µM [8] [%] | growth, % of control at 10 µM [9] [%] | growth, % of control at 10 µM (CCRF-CEM) [%] | growth, % of control at 10 µM (MCF7) [%] | growth, % of control at 10 µM (SK-MEL-5) [%] | growth, % of control at 10 µM [10] [%] | growth, % of control at 10 µM [11] [%]
COc1cc(/C=C(\C#N)c2ccc3c(c2)OCO3)cc(OC)c1 | 103 | 97.3 | 84.6 | 92.3 | 86.4 | 92.4 | 103 | 92.5 | 97 | 64.5 | 94.6 | 95.7 | 67.2 | 89.4 | 83.4 | 85.5 | 97.3 | 78.6 | 
COc1ccc(/C=C(\C#N)c2ccc3c(c2)OCO3)c(Cl)c1OC | 100 |  | 84.7 | 100 | 64.1 | 70.3 | 77.3 | 82.3 | 106 |  | 69.2 | 79.1 |  |  |  | 71.6 | 85 | 74.9 | 
COc1ccc(/C(C#N)=C/c2ccc3c(c2)OCO3)cc1 | 88.7 | 81 | 71.2 | 94.7 | 74.7 | 64.5 | 102 | 68.7 |  | 66.6 | 63.6 | 79.9 | 70.4 | 64.7 | 72.1 | 60.8 | 91.4 | 72.8 | 93
COc1ccc(/C=C(\C#N)c2ccc3c(c2)OCO3)cn1 | 100 | 77.9 | 77.4 | 90.1 | 81 | 63.8 | 95.6 | 75.6 | 89.4 | 70.8 | 63.9 | 90.6 | 71.5 | 73.2 | 87.7 | 83.5 | 84.1 | 82.3 | 64.9
N#C/C(=C\c1ccc2ccccc2n1)c1ccc2c(c1)OCO2 | 63 | 77.5 | 56.8 | 60.8 | 86.1 | 71.9 | 59.5 | 50.2 |  | 87.1 | 86.8 | 68.3 | 78.5 | 84.9 | 89.7 | 84.6 | 95.3 | 72.8 | 90.2
N#C/C(=C\c1cccnc1Cl)c1ccc2c(c1)OCO2 | 115 | 101 | 103 | 56.2 | 88.5 | 106 | 103 | 99.8 | 112 | 83.8 | 109 | 107 |  | 89.3 | 93.7 | 112 | 92.2 | 87.6 | 
COc1cc(/C=C(\C#N)c2ccc3c(c2)OCO3)cc(OC)c1OC | 108 | 88.7 | 93.6 | 96.3 | 82.1 | 88.8 | 109 | 88.2 | 97.5 | 88.6 | 93.8 | 98.9 | 87.2 | 88.5 | 96.5 |  | 92.2 | 67.1 | 
N#C/C(=C\c1cc(Br)cc(Br)c1)c1ccc2c(c1)OCO2 | 103 | 89.2 | 79.9 | 108 | 91.4 | 91.1 | 97.1 | 89.9 | 100 | 62.9 | 92.4 | 84 | 66.6 | 76.6 | 75.4 | 82.3 | 95.4 | 76.5 | 113
N#C/C(=C\c1c(Cl)cccc1Cl)c1ccc2c(c1)OCO2 | 97.7 | 94.3 | 79.9 | 92.6 | 100 | 93.7 | 98.9 | 95.8 | 99.8 | 75 | 95.2 | 56.1 | 61.2 | 84.4 | 86.7 | 93.7 | 93.5 | 80.1 | 
N#C/C(=C\c1ccc(Cl)c(Cl)c1)c1ccc2c(c1)OCO2 | 97.7 | 91.5 | 70 | 70.9 | 94.1 | 102 | 62.7 | 80.5 | 86.3 | 83.1 | 91.7 |  | 72.2 | 80.1 | 91.9 | 79.9 | 98.4 | 73.7 | 
N#C/C(=C\c1ccc2c(c1)OCO2)c1ccc2c(c1)OCO2 | 71.7 | 70.2 | 59.5 | 83.8 | 49.6 | 39.6 | 65.1 | 66.8 | 80.2 | 57.9 | 42.2 | 69 | 67.7 | 75.2 | 73.2 | 23.9 | 75.9 | 86.7 | 94.2
N#C/C(=C\c1ccsc1)c1ccc2c(c1)OCO2 | 103 | 110 | 92.1 | 90.8 | 96.5 | 102 | 112 | 103 | 110 | 83.5 | 94.6 | 114 | 79.7 | 104 | 104 | 87.1 | 102 | 84.6 | 
